These results are taken from patent US20230065158A1, “OXABICYCLOHEPTANES FOR TREATMENT OF SMALL CELL LUNG CANCER” (Lixte Biotechnology, Inc., priority 2021, published 2023).

Read-outs that look alike come from different tables or passages of the source.

In general, IC50 refers to the concentration needed to halve the response being measured.

For data set [1], the system named is H524 cells. As to the kind of experiment: Cell Counting Kit-8 cytotoxicity and drug combination, H524. The method, then:
A Mann-Whitney U test was used for comparison between the normal and SCLC samples. FIG. 1B: IHC for PP2A was conducted on TMA tissue sections and images were captured at 4× or 20× using a 3D-Histech PANNORAMIC SCAN whole slide scanner (3D-Histech, Budapest, Hungary). […] TMAs were scored in normal (n=24) and tumor (n=79) cores on a scale from 0 (no staining/no protein expression) to 3+(strong staining/high protein expression). FIG. 1C: Summary bar graph of the average PP2A subunit staining. IHC staining intensity of normal and tumor cores. […] FIG. 1D: In order to compare the expression of PP2A subunits A and C, cell lysates from seven SCLC cell lines and HBEC 3KT (non-malignant cell line) were subjected to western blotting. FIG. 1E: PP2A activity was determined using a serine/threonine phosphatase activity assay (Millipore) after 24 h exposure to cantharidin (10 μM) and LB-100 (5 μM). […] The Cell Counting Kit-8 assay detected cell H524 and H69 cell viability. […] FIGS. 1I-1K: Graphs depict the mean+SEM of percent viability for cells (n=3). Colony formation assays were used to count the ability of H524 (FIGS. 11 and 1J) and H69 (FIGS. 1K and 1L) cells to form colonies. […] Representative images of colonies at 4× are shown under the graph (n=2).*p<0.05; **, p<0.01; *** p<0.001; ****, p<0.0001. Experiments were repeated in triplicate and representative data are shown.
(In general: Tetrazolium assays rely on reduction of a dye to a coloured formazan, in cell work by metabolically active cells.)

Data set [2] relates to H524 cells. The data set can be described thus: Transendothelial extravasation assay through HUVEC monolayer, H524. Type of data set: cell-based. The conditions noted are these: after 20 h of drug treatment. The method, then:
FIGS. 3A-3H depict SCLC cell invasion through HUVEC monolayer. FIGS. 3A-3D: Graphical representation of H524/H69 cell ability to disrupt a confluent HUVEC monolayer using an electrical substrate-impedance sensing system. Arrows indicate time point when cells were added. Inserts show mean values and SD for each group after 20 h of drug treatment. After treatment, cell viability was counted using an Auto T4 Cell Counter (Nexcelom Cellometer). […] Whole cell Pt accumulation. Graphical representation of LB-100 effect on platinum uptake by SCLC cells. Cells were pretreated with LB-100 (H524—5 μM; H69—20 μM) overnight, then treated with carboplatin for one or four hours (H524—10 μM; H69—30 μM). Whole cell pellet was used for platinum (Pt) measurement. Values are normalized to total protein concentration. FIGS. 3E and 3F: Panels show mean values and SD of Pt accumulation for each group. […] Effect of LB-100 on PP2A expression and apoptosis regulatory proteins in H524 and H69 cells. […]
To discern the effect of LB100 on cell invasion, we tested the ability of SCLC cells to invade though a layer of endothelial cells (ECs). Toward this end, we measured the trans-endothelial monolayer resistance using an electrical substrate-impedance sensing system (Applied Biophysics, Troy, N.Y., USA), as previously described (24). […]

The subject of data set [3] is H69 cells mouse xenograft. As to the kind of experiment: Subcutaneous H69 cells mouse xenograft. Type of data set: in vivo, Athymic nude mice. Conditions: for tumor weight compared to vehicle-treated group: end of experiment. The method, then: FIGS. 8A-8E depicts results of LB-100 activity alone and with carboplatin against H69 cells mouse xenograft. Tumor size (FIG. 8A) and body weights (FIG. 8B) were measured. Inhibition of tumor growth after LB-100 (*p<0.05), carboplatin (***p<0.001) and their combination (***p<0.001) were delivered via i.p. injections. P values show significant differences compared with vehicle group. FIG. 8C: Tumor images from vehicle and drug-treated groups. FIG. 8D: Tumor mass was measured at the end of experiment. […] FIG. 8E: Columns show total platinum (Pt) concentration in mouse tumors with carboplatin and LB-100/carboplatin treatments (n=3 as technical replicates) Pt mass was normalized to tumor total mass. Statistical analysis was performed using an ANOVA with Tukey post hoc-test (*p<0.05), carboplatin (**p<0.01).
Animal studies were performed according to an IACUC protocol approved by City of Hope National Medical Center Animal Care and Use Committee. Athymic nude mice (5-6 weeks of age) were purchased from NCI (Frederick, Md.). Mice were injected subcutaneously on their right flank with H69 cells suspended (2×106) in 100 μl of PBS and 100 μl of matrigel (BD Biosciences, San Jose, Calif.). Tumor growth was measured in two dimensions with caliper and when surface tumor was visible (45-50 mm2) mice were randomized in four groups as follow: vehicle (PBS, i.p. 3 times a week), LB100 (0.25 mg/kg, i.p. 3 times a week), carboplatin (50 mg/kg, i.p. 2 times a week) and drug combination (LB100/carboplatin i.p.) for 30 days. At the end of the study, the mice were euthanized by CO2 asphyxiation followed by cervical dislocation. Tumor tissues were excised, weighed, and subsequently fixed in 10% buffered formalin and embedded in paraffin for histological analysis.

In another data set the test system is H446 cells. The data set can be described thus: Cell Counting Kit-8 cytotoxicity, H446.
The test system of another data set is H146 cells. As to the kind of experiment: Cell Counting Kit-8 cytotoxicity, H146.

Source text for H146 cells: (§1) To determine specific cytotoxicity, we used Cell Counting Kit-8 (Dojindo Molecular Technologies, Rockville, Md.) as previously described (50).
Source text for H446 cells: as §1

`C[NH+]1CCN(C(=O)C2C(C(=O)O)[C@H]3CC[C@@H]2O3)CC1` (stereo in doubt) [LB-100, 3-[(4-Methylpiperazin-1-yl)carbonyl]-7-oxabicyclo[2.2.1]heptane-2-carboxylic acid]: the concentration for half-maximal inhibition (IC50) is under 8 µM in the data set with H524 cells [1] (Homo sapiens, NCI-H524, 72 h, read-out: Cytotoxicity IC50, H524, 72 hours); 5.3 µM in the data set on H524 cells [1] (human, 72 h); under 8 µM with H446 cells (Homo sapiens, NCI-H446, 72 h, read-out: Cytotoxicity IC50, H446); about 20 µM in the data set on H146 cells (Homo sapiens, NCI-H146, 72 h, read-out: Cytotoxicity IC50, H146). In the data set on H524 cells [2], the “% change of HUVEC barrier disruption (transmigration)” value was 16.9+2%. The “tumor weight compared to vehicle-treated group” value in data set [3] is listed as “significant reduction in tumor weight”. The tumor size entry in data set [3] (i.p., 30 days) is recorded as “statistically significant reduction in tumor size”.
Consider `N.N.O=C([O-])C1(C(=O)[O-])CCC1.[Pt+2]` [Carboplatin, reference compound], for which the IC50 in the data set on H524 cells [1] (read-out: Cytotoxicity IC50, H524, 72 hours) amounted to 8.2 µM; in the data set with H446 cells (read-out: Cytotoxicity IC50, H446, 72 hours) it was 26.2 µM; with H146 cells (read-out: Cytotoxicity IC50, H146, 72 hours) it was 8.3 µM. In addition, in the data set on H524 cells [2], the “% change of HUVEC barrier disruption (transmigration)” value stood at 18.2 ± 0.4%. In addition, in data set [3], the “tumor weight compared to vehicle-treated group” value was “significant reduction in tumor weight”.
